pIC50: −log10 of the molar value.

The conditions of data set [1]: background statement on approved drugs; cited from earlier work.
Data set [2] concerns mutations in exons 18, 19, and 21 of EGFR. To be noted: cited from earlier work.
The next data set concerns EGFR exon20 insertions. To be noted: patients with EGFR exon20 insertions; cited from earlier work.
The next data set has as its system EGFR T790M. To be noted: T790M mutant patients; cited from earlier work.
In data set [3] the test system is EGFR exon20 insertion mutations. The following applies: cited from earlier work.
Data set [4] relates to classical activating EGFR mutations and brain metastasis. To be noted: EGFR mutant NSCLC; cited from earlier work.
The test system of another data set is wild-type EGFR. To be noted: cited from earlier work.
In the next data set the test system is BA/F3 (insSVD) cells. Description: Ba/F3-EGFR-insSVD cell survival assay (Cell Titer-Glo). The following applies: Mus musculus, BaF3, 48 h. In kind it is cell-based. The method, boiled down: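 CellTiter-Glo luminescence read after 48 h compound exposure at 37° C. Cells: IL-3-independent Ba/F3 lines transduced with EGFR-insSVD or EGFR-insSVD T790M, maintained on 10 ng/ml EGF and seeded at 4000 per well.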

Data set [5] concerns the target T1, mutEGFR (D770_N771insSVD) (Homo sapiens, UniProt P00533, DUP768-770).
T1 construct: GST-EGFR #3 (SVD between D770 and N771); made in house; host or cells: Sf9 insect cells (baculovirus)
Description: Exon20-Mutant-EGFR (D770_N771insSVD) kinase assay (TR-FRET). The class given is biochemical. (In general: Time-resolved FRET reads energy transfer from a long-lived donor to a nearby acceptor.)

Data set [6] has as its target T2, mutEGFR (D770_N771insNPG, T790) (Homo sapiens, UniProt P00533, INS770NPG/T790M).
T2 construct: exact insNPG construct not described; in-house EGFR proteins were N-terminal GST fusions from baculovirus/insect cells (borders R669-A1210 given only for WT, insSVD, insASV)
Description: mutEGFR (D770_N771insNPG, T790) kinase assay. In kind it is biochemical. From the text: The different EGFR proteins used in the biochemical kinase activity inhibition assays were generated inhouse by expression in insect cells using Baculo Virus system and subsequent purification as described in the following paragraphs.
The cDNAs encoding the various protein sequences from human EGFR human (P00533) were optimized for expression in eukaryotic cells and synthesized by the GeneArt Technology at Life Technologies.

Data set [7] concerns BA/F3 (EGFR D770_N771 insSVD T790M) cells. Description: Ba/F3-EGFR-insSVD T790M cell survival assay (Cell Titer-Glo). In kind it is cell-based. The following applies: Ba/F3 EGFR-D770-N771ins_SVD, 48 h. As to the method:
Cellular Data Description (WT, insSVD, insSVD T790M) 293T cells from ATCC were transfected with pBABEpuro expression constructs for WT EGFR or EGFR-insSVD, or EGFR-insSVD T790M, and pCL-Eco packaging vector using Fugene-6 transfection reagent from Promega. Plates were incubated at 37° C. for 48 h. Retrovirus was harvested by filtering the media supernatant through a 0.45 μm filter.
Ba/F3 cells purchased from DSMZ were grown in RPMI+10% FBS+10 ng/ml IL-3 and infected with filtered retroviral supernatant at a 1:2 dilution. Polybrene was added to a concentration of 8 μg/mL, plates were spun for 90 min, and incubated for 16 h at 37° C. 2 μg/mL puromycin was added to the infected cells 24 h after infection and cells were continually grown in the presence of puromycin and 10 ng/ml IL-3. Following stably expressing Ba/F3 cell lines were generated: Ba/F3-EGFR-WT, Ba/F3-EGFR-insSVD, Ba/F3-EGFR-insSVD T790M, (Ba/F3-vector-control).
For cell survival assays, Ba/F3 cells were grown to a density of 1-2 million cells per mL, spun down and resuspended in media without IL-3, and replated at a concentration of 200,000-500,000 cells per mL. The cells ectopically expressing WT EGFR, EGFR-insSVD, or EGFR-insSVD T790M were plated with 10 ng/ml Millipore Culture grade EGF. The cells ectopically expressing pBABEpuro empty vector were plated with 10 ng/mL IL-3.
2 days later, cells were plated in 50 µL in a 384 well plate at a concentration of 4000 cells per well for cells assayed in the absence of IL-3 and 2000 cells per well for cells assayed in the presence of IL-3. 100 nL of compound was added to each well using a 100 nL pin head, and plates were incubated at 37° C. for 48 h.
Cell viability was measured by adding 20 μL of Cell Titer-Glo Luminescent Cell Viability Reagent diluted 1:3 in PBS. Plates were sealed with Perkin Elmer Top-Seal, inverted several times to mix, and immediately centrifuged at 1000 rpm for 2 min. Plates were incubated in low light conditions for 8-10 min and luminescence was measured.
(In ATP-based viability assays light output follows the ATP content of the culture.)

The mark [8] stands for this setting: Table 3a, cell survival, Cell Titer-Glo, with 10 ng/ml EGF, without IL-3.
[9] abbreviates: mutEGFR (D770_N771insSVD) kinase assay IC50, Table 2a, D770_N771insSVD, 2 mM ATP.
Where [10] appears, read: mutEGFR (D770_N771insSVD) kinase assay IC50, Table 2b (from US Priority Patent Application), mutEGFR D770_N771insSVD.
The mark [11] stands for this setting: Table 2b (from US Priority Patent Application), mutEGFR D770_N771insNPG.
The mark [12] stands for this setting: Table 3b, Ba/F3 EGFR-insSVD T790M.

T2 sequence (P00533 with tags, fused parts or gaps INS770NPG/T790M limits assumed): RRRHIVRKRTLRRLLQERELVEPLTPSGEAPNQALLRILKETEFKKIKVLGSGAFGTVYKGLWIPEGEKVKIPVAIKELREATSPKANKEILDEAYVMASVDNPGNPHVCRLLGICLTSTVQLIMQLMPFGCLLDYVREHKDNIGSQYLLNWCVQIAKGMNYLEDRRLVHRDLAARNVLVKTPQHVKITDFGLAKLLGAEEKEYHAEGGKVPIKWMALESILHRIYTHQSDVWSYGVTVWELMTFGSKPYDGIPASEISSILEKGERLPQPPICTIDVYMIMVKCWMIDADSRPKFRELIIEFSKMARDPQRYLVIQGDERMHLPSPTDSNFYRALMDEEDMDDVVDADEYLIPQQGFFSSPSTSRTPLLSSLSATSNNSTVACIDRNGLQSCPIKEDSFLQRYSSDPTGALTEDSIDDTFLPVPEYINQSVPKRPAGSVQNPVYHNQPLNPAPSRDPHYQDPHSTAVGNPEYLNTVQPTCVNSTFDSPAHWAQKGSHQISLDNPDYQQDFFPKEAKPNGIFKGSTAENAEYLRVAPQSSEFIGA
T1 sequence (P00533 with tags, fused parts or gaps DUP768-770): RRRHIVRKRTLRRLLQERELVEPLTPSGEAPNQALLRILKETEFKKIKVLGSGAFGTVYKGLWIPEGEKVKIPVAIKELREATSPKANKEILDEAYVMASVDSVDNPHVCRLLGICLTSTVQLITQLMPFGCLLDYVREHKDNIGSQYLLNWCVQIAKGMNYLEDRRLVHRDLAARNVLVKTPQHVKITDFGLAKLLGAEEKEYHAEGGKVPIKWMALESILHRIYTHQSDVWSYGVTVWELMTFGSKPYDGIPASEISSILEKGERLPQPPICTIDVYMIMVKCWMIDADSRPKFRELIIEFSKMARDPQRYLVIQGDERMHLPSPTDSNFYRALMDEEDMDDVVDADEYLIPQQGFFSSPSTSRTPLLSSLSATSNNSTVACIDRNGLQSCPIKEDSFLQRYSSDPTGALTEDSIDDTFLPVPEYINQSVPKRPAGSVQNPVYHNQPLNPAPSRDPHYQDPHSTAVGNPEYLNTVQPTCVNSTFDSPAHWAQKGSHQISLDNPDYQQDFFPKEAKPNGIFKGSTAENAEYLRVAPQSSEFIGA

For amivantamab, the blood-brain-barrier permeability entry in data set [1] is recorded as “only limited blood-brain-barrier permeability”.

With `COc1cc2ncnc(Nc3ccc(F)c(Cl)c3)c2cc1OCCCN1CCOCC1` [gefitinib], in data set [2], the durability of response entry is given as “often not durable” and the efficacy in patients result was “effective in patients”. In addition, in the data set with EGFR exon20 insertions, the overall survival entry is on record as “significantly reduced”, the progression-free survival result is on record as “significantly reduced” and the response rates result is “particular low response rates”.

For the compound `C=CC(=O)Nc1cc(Nc2nccc(-c3cn(C)c4ccccc34)n2)c(OC)cc1N(C)CCN(C)C` [osimertinib], the efficacy in patients result in the data set on EGFR T790M was “effective in T790M mutant patients”. Also, in [3], the “activity on EGFR exon20 insertion mutations” value is on record as “only limited activity”. Besides, in data set [4], the CNS activity entry was “clearly improved CNS activity”.

For `CN(C)C/C=C/C(=O)Nc1cc2c(Nc3ccc(F)c(Cl)c3)ncnc2cc1O[C@H]1CCOC1` [afatinib], in data set [2], the durability of response result is “often not durable” and the efficacy in patients result was “effective in patients”. Besides, the “inhibition of wild-type EGFR” value with wild-type EGFR was “potent inhibitors of wild-type EGFR”. In addition, in the data set with EGFR exon20 insertions, the overall survival result was “significantly reduced”, the progression-free survival entry is on record as “significantly reduced” and the response rates entry is “particular low response rates”.

In the case of `C#Cc1cccc(Nc2ncnc3cc(OCCOC)c(OCCOC)cc23)c1` [erlotinib], in [2], the durability of response entry is “often not durable” and the efficacy in patients entry is reported as “effective in patients”. Also, in the data set with EGFR exon20 insertions, the overall survival entry is “significantly reduced”, the progression-free survival result is on record as “significantly reduced” and the response rates entry is on record as “particular low response rates”.

Turning to `C=CC(=O)Nc1cc(Nc2ncc(C(=O)OC(C)C)c(-c3cn(C)c4ccccc34)n2)c(OC)cc1N(C)CCN(C)C` [mobocertinib, reference compound], the blood-brain-barrier permeability entry in data set [1] was “only limited blood-brain-barrier permeability”.

Take `C=CC(=O)N1CCn2nc(-c3ccc(F)cc3)c(-c3ccncc3)c2C1` [Example 1, 1-[2-(4-fluorophenyl)-3-(pyridin-4-yl)-6,7-dihydropyrazolo[1,5-a]pyrazin-5(4H)-yl]prop-2-en-1-one]: the pIC50 (usually the IC50 on a negative log10 scale, so that one unit is a factor of ten) with BA/F3 (insSVD) cells (setting [8]) is 7.46; in the data set on BA/F3 (insSVD) cells (Table 3b, Ba/F3 EGFR-insSVD) it was 7.46; in data set [5] (setting [9]) it was 9.21; in data set [5] (setting [10]) it was 9.21; in [6] (Table 2a, D770_N771insNPG) it was 9.02; in data set [6] (setting [11]), 9.02. Besides, the negative logarithm of the IC50 (pIC50) in [7] (setting [8]) and in data set [7] (setting [12]) was 6.92 throughout.

For the compound `CN(C)CC#CC(=O)N1CCn2nc(-c3ccc(F)cc3)c(-c3ccncc3)c2C1` [Example 65, 4-(dimethylamino)-1-[2-(4-fluorophenyl)-3-(pyridin-4-yl)-6,7-dihydropyrazolo[1,5-a]pyrazin-5(4H)-yl]but-2-yn-1-one], the pIC50 in the data set on BA/F3 (insSVD) cells (setting [8]) was 7.82; in data set [5] (setting [9]), 9.42; in data set [6] (Table 2a, D770_N771insNPG), 9.02; in [7] (setting [8]) it was 6.00.

Consider `C=CC(=O)N1CCn2nc(-c3ccc(F)cc3)c(-c3ccnc(NC(=O)C4CC4)c3)c2C1` [Example 7, N-{4-[2-(4-fluorophenyl)-5-(prop-2-enoyl)-4,5,6,7-tetrahydropyrazolo[1,5-a]pyrazin-3-yl]pyridin-2-yl}cyclopropanecarboxamide], for which the pIC50 with BA/F3 (insSVD) cells (setting [8]) was 7.91; in the data set on BA/F3 (insSVD) cells (Table 3b, Ba/F3 EGFR-insSVD), 7.91; in [5] (setting [9]), 9.68; in data set [5] (setting [10]), 9.68; in data set [6] (Table 2a, D770_N771insNPG), 9.39; in data set [6] (setting [11]) it was 9.39. In addition, the pIC50 in [7] (setting [8]) and in data set [7] (setting [12]) was 7.22 throughout.

The values above are taken from patent publication US20260365653A1, “IRREVERSIBLE MUTEGFR INHIBITORS” (Bayer Aktiengesellschaft, priority 2022, published 2026).
